Assay [1] addresses T1, Human brain β-Secretase (Homo sapiens, UniProt P56817).
T1 construct: Human brain β-Secretase from concentrated HiQ pool prepared Jul; from tissue; host or cells: human brain
The experiment in a line: MBP-C125 enzyme inhibition assay (ELISA detection of β-secretase cleavage of MBP-C125 substrate). The format is biochemical. The conditions noted are these: pH 4.5, 37° C., 90 minutes, read-out: IC50 Grouping. The method, then: The inhibitory concentration data was obtained by use of the MBP-C125 assay, which determines the relative inhibition of β-secretase cleavage of an MPB-C125 substrate by the compounds assayed. Human brain β-Secretase from concentrated HiQ pool prepared Jul.
Inhibition data was obtained from an ELISA which uses an anti-MBP capture antibody (on precoated and blocked 96-well high binding plates) followed by incubation with diluted enzyme reaction supernatant, incubation with an anti-SW192 specific biotinylated reporter antibody and incubation with streptavidin/alkaline phosphatase. Detection was effected by a fluorescent substrate signal on cleavage by the phosphatase.
Compounds were diluted in a 1:1 dilution series to a six-point concentration curve (two wells per concentration) which took up one 96-plate row per compound tested.
Each of the test compounds was weighed out into a vial and DMSO was added to make up a 10 mM solution. To obtain a final compound concentration of 200 μM at the high point of a 6-point dilution curve, 100 μL of the 10 mM solution was added to well C1 of a 96-well V-bottom plate. Fifty μL of DMSO was added to odd wells of row C across the plate and 1:1 serial dilutions were made. 10 μL of each dilution was added to each of two wells on row C of a corresponding V-bottom plate to which 190 μL of 52 mM NaOAc/7.9% DMSO, pH 4.5 were pre-added. […] The compound concentration in the final enzyme reaction was thus 50 times less than the starting concentration. The final reaction mixture of 200 μM compound for the highest curve point was in 5% DMSO, 20 mM NaAc, 0.06% TX100, at pH 4.5. The enzyme reaction was started by warming the plates to 37° C. After 90 minutes at 37° C., 200 μL/well cold specimen diluent was added to stop the reaction and 20 μL/well was transferred to a corresponding α-MBP coated ELISA plate, containing 80 μL/well specimen diluent. […] The signal was read on a fluorescent plate reader.

The next assay addresses β-secretase (Homo sapiens, UniProt P56817). The assay can be described thus: assays with β-secretase (pepstatin remark). The format is biochemical.
Assay [2] deals with Human brain β-Secretase (human, UniProt P56817 46-501, limits assumed). The assay can be described thus: cell-based or functional assay.

From patent publication US7276484B2, “Dipeptide inhibitors of β-secretase” (Elan Pharmaceuticals, Inc., priority 1999, dated 2007) come the findings set out here.

Numbered stars: 1 amine (or outer) side, 2 acyl side, 3 side chain; on linkers, the order of the positions; unused ones are H or OH. Square brackets hold non-standard residues; d marks the D form. Ends that are not written are not given here. Peptide text beside a SMILES is read from it. * marks the point of attachment. 3,5‑difluoroPhe/Sta = 3,5-difluorobenzyl statine, O=C(C[C@H](O)[C@H](Cc1cc(F)cc(F)c1)N[*:1])[*:2]; Sta = CC(C)C[C@H](N)[C@@H](O)CC(=O)O; Isovaleryl = CC(C)CC(=O)* Bounds are passed on as bounds.

The IC50 is the concentration needed to halve the response being measured.

T1 sequence (P56817 46-501): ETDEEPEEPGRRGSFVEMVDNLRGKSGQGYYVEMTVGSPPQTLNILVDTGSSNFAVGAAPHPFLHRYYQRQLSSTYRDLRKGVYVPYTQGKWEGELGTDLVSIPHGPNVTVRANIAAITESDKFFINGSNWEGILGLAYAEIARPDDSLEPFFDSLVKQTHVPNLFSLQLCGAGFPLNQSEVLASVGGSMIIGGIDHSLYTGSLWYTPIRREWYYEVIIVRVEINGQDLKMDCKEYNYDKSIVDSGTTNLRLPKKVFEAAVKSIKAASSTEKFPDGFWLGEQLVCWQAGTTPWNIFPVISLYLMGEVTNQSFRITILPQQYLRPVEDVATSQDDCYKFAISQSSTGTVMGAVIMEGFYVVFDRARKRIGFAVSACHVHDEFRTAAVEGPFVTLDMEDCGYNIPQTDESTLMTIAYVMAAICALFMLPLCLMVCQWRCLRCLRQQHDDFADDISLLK
β-secretase, sequence (P56817 46-501): as above
Human brain β-Secretase (human, UniProt P56817 46-501, limits assumed), sequence (P56817 46-501 limits assumed): as the sequence (P56817 46-501) above

Consider “2-carboxy-diphenylether coupled with the peptide 3,5-difluoroPhe/Sta-Val-Ala-Glu-Phe [Example 29]”, for which the concentration for half-maximal inhibition (IC50) at Human brain β-Secretase [1] is less than 10 µM.

Turning to “4-carboxycinnoline coupled to the 3,5-difluoroPhe/Sta-Val-Ala-Glu-Phe [Example 44]”, the IC50 at Human brain β-Secretase [1] was in the range of 10 to 99 µM.

Regarding `COC(=O)c1cccc(C(=O)N[C@@H](Cc2cc(F)cc(F)c2)[C@@H](O)CC(=O)N[C@H](C(=O)NC2CC(C(=O)O)C[C@H](C(=O)O)C2)C(C)C)c1` (some centres unmarked) [Example 39], at Human brain β-Secretase [1], the IC50 was less than 10 µM.

In the case of `CCCN(CCC)C(=O)c1cccc(CNC(Cc2cc(F)cc(F)c2)C(O)CC(=O)NC(C(=O)NC2CC(C(=O)O)CC(C(=O)O)C2)C(C)C)c1` (stereo not drawn) [Example 54, 3-N,N-di-n-propyl-carboxamidobenzyl-difluorophenylstatine-Val-1-amino-3,5-cis,cis-cyclohexyldicarboxylic acid], the IC50 at Human brain β-Secretase [1] was less than 10 µM.

Turning to `CC(C)CC(=O)N[C@H](C(=O)N[C@H](C(=O)N[C@@H](CC(C)C)[C@@H](O)CC(=O)N[C@@H](C)C(=O)N[C@@H](CC(C)C)[C@@H](O)CC(=O)O)C(C)C)C(C)C` [pepstatin] (Isovaleryl-VV[Sta]A[Sta]-OH), the “inhibitory activity in assays with β-secretase” value against β-secretase was “no inhibitory activity”.

On to “geminal dimethyl glutaric dimethylamide group coupled to the derivatized Sta-Val-Ala-Glu-Phe pentapeptide [Example 32]”, for which the IC50 on Human brain β-Secretase [1] fell in the range of 10 to 99 µM.

For “glutaric acid piperidine amide coupled with the derivatized Sta-Val-Ala-Glu-Phe pentapeptide [Example 33]”, the IC50 at Human brain β-Secretase [1] lay within 10 to 99 µM.

On to {2‑carboxy‑diphenylether}-[3,5‑difluoroPhe/Sta]VAEF [Example 29: 2-carboxy-diphenylether coupled with the peptide 3,5-difluoroPhe/Sta-Val-Ala-Glu-Phe], for which the “IC50 Grouping (MBP-C125 enzyme inhibition assay, ELISA read-out)” value with Human brain β-Secretase [2] was less than 10 µM.
